The record followed here is patent US20120114706A1, “Endorphin Therapy Compositions and Methods of Use Thereof” (priority 2008, published 2012).

In assay [1] the test system is rat hypothalamic neuronal stem cells (NSCs). Description: Differentiation of hypothalamic neuronal stem cells to BEP neurons in culture. Particulars: agent alone, 0.1-10 μM. The class given is cell-based. Here is the method:
Fetal brains were obtained from 17-day-old pregnant rats (Simonsen laboratories; Gilroy, […].). Mediobasal hypothalamic tissues from these rats were dissected out and cells from these tissues were dissociated, and mixed hypothalamic cell cultures were prepared as previously described (De et al. (1994) J. Biol. Chem., 269:26697-26705). Neurons were separated from glial cells by filtering mixed hypothalamic cells through a 48-μM nylon mesh. Then hypothalamic cells were sedimented at 400 g for 10 minutes; pellets were re-suspended in HEPES-buffered Dulbecco's Modified Eagle's Medium (HDMEM, 4.5 g/l glucose; Sigma, St. Louis, Mo.); and cells were cultured into poly-ornithine coated 25-cm^2 tissue culture flasks (2.5 million cells/flask) in HDMEM-containing 10% fetal bovine serum (FBS) and 1% penicillin/streptomycin. On day 2, the culture medium was replaced with HDMEM containing 10% FBS, 33.6 μg/ml uridine and 13.6 μg/ml 5-fluodeoxyuridine to prevent the overgrowth of astroglial cells. All of these chemicals were obtained from Sigma. On day 3, the culture medium was replaced with HDMEM-containing serum supplement (30 nM selenium, 20 nM progesterone, 1 μM iron-free human transferrin, 5 μM insulin, and 100 μM putrescin) and 1% penicillin/streptomycin. […] By this time, these cultures were approximately 85-90% neurons, as determined by MAP-2 positivity. […]

The next assay relates to MADB106 cells. As to the kind of experiment: Pharmacologic modification of autonomic influence on immune system and lung metastasis. The class given is in vivo, rat. Particulars: for PBMC NK cell activity / macrophage migration activity: 24 hours after MADB106 inoculation, naloxone 10, MP/MET 0.8, MLA 2.5 mg/kg or saline; for effect on β-EP elimination of tumor cell lung retention: β-EP transplanted Fischer rats, naloxone 10, MP/MET 0.8, MLA 2.5 mg/kg for 8 days. On the procedure: 48 β-EP implanted (SC) male Fischer rats and 48 control (C) male Fischer rats were divided into 8 groups, treated with saline, Naloxone (10 mg/kg body weight), Metaproterenol (MP, 0.8 mg/kg body weight), or Methyllycaconitine (MLA, 2.5 mg/kg body weight), respectively. Animals were treated with drugs for 8 days. In the second day of drug injection, animals were inoculated with MADB106 cells (100,000/0.2 ml/rat). 24 hours after tumor cell inoculation, blood was collected by orbital puncture. Plasma was collected, and PBMCs were separated for migration assay and NK cytolytic assay. 7 days after tumor inoculation, blood was taken again by orbital puncture. Plasma was collected, and PBMCs were separated for migration assay and T cell cytolytic assay. After 6 weeks, animals were sacrificed, and brains, spleens and blood were frozen. Lungs were fixed in formalin and processed to H&E staining. […] However, 7 days after tumor inoculation, there isn't a clear pattern of T cell cytolytic activity and macrophage migration activity between groups (FIGS. 30B and 30D).
It was hypothesized that the beneficial effect of BEP neuron transplants on immune function is regulated through autonomic nervous system, and that central BEP modulate peripheral immune function by inhibiting the sympathetic activity and activating the parasympathetic activity. Metaproterenol (MET) is an agonist for β-receptors, which are a class of G protein-coupled receptors that are targets of the catecholamines, especially norepinephrine and epinephrine (Dokur et al. (2004) J Neuroimmunol 5:148-57; Page et al. (2008) J Neuroimmunol 193:113-9). Methyllycaconitine (MLA) is a selective antagonist of α7 nicotine acetylcholine receptor (α7 nAChR; Wu et al. (2011) Clin Cancer Res 17:3533-41). By injecting MET and MLA i.p., the stimulation of sympathetic nerves and inhibition of parasympathetic nerves was mimicked. Naloxone, an opiate receptor antagonist, was used to test whether BEP neuronal effects is acted via opiodergic receptor (Boyadjieva et al. (2006) Alcohol Clin Exp Res 30:1761-7). Forty-eight BEP neuron-transplanted Fischer rats and 48 control rats were divided into 8 groups and treated with saline, naloxone (10 mg/kg body weight), MET (0.8 mg/kg body weight), or MLA (2.5 mg/kg body weight) for 8 days (the doses used for these drugs are recognized as effective biological doses). A day after the first injection of these agents, animals were inoculated with MADB106 cells (100,000/0.2 mL/rat). Twenty-four hours after tumor cell inoculation, blood was collected by orbital puncture. Plasma was collected, and peripheral blood mononuclear cells (PBMC) were separated for migration assay and NK cytolytic assay. These animals continued receiving the blocker treatments for 7 days. After 4 weeks they were sacrificed, their lungs were fixed in formalin and processed to H&E staining for determination of cancer pathology. Brain tissues were processed for verification of the site and viability of BEP cell transplantation.

The test system of assay [2] is differentiated BEP neurons. Description: PGE1-induced BEP release and POMC expression of differentiated neurons. The class given is cell-based, rat. Particulars: PGE1 10 μM. On the procedure: Enriched hypothalamic neurons were maintained in HDMEM, containing 10% FBS, for 3 weeks. Each week, cells were trypsinized and cultured. By the beginning of the third week, many spheres started to develop. These spheres were separated and dissociated into single cells by using trypsin/EDTA (Sigma) solution. They were then cultured in suspension or in poly-L-ornithine-coated 24-well plates (20,000 cells/well) in stem cell medium (DME F-12, […] (LIF), 0.1 μg/ml; L-glutamine, 10 mM; rat bFGF, 20 ng/ml; Mem amino acids solution, MAA, 0.5%; all of the chemicals were from Sigma except that bFGF was obtained from R&D Systems, Minneapolis, Minn.). Cells were cultured for 2 weeks, during which they grew and developed secondary spheres. Some of these cultures were used for immunocytochemical localization of nestin staining to determine whether they were neurospheres. These neurospheres were maintained in cultures for several months by regularly changing the medium and by splitting cells. The secondary spheres were re-suspended and cultured in poly-L-ornithine-coated 24-well plates (20,000/well; for physiological studies) or in poly-L-ornithine-coated 8-well permanox slides (1000 cells/slide; NaIg Nunc International Corp., IL; for histochemical studies). The differentiation experiments were performed by treating these cells for 1 week with PACAP (1-10 μM; SynPep) and dbcAMP (1-10 μM; Sigma) or a combination of both, and then in defined cell culture medium without the drugs for 1 week. At day 3, day 7 and day 14 the immunocytochemical, biochemical and/or real-time RT-PCR analyses were performed.
The immunoreactive β-endorphin levels in culture medium samples were measured by a radioimmunoassay system (De et al. (1994) J. Biol. Chem., 269:26697-26705). All the samples were dried and reconstituted in assay buffer and measured in duplicate in a single assay. The minimum amount of β-endorphin detectable was 3 pg/tube.
Expression levels of POMC mRNA in NSCs and differentiated cells were measured by a quantitative real-time RT-PCR (TaqMan assay) on an ABI PRISM 7700 Sequence Detector (PerkinElmer Applied Biosystems, Foster City, Calif.) as described previously (Chen et al. (2004) J. Neurochem., 88:1547-1554). […] The expression of POMC mRNA was detected using a POMC gene-specific primer pair and probe (TaqMan Gene Expression Assay, Rn00595020_ml; Applied Biosystems; Foster City, Calif.). […] The relative quantity of mRNA was calculated by relating the PCR threshold cycle obtained from the tested samples to relative standard curves degenerated from a serial dilution of cDNA prepared from the total RNA. The POMC mRNA level in each sample was normalized with the level of GAPDH mRNA which was measured by a control reagent (PerkinElmer Applied Biosystems). […]

Entries after “also recorded” stand apart in the source; their conditions may differ.

Take “pituitary adenylate cyclase-activating peptide [PACAP]”: the “effect on neurosphere differentiation” value in assay [1] is on record as “moderate effect”.

Take `CCCC(=O)Nc1ncnc2c1ncn2[C@@H]1O[C@@H]2COP(=O)(O)O[C@H]2[C@H]1OC(=O)CCC` [dbcAMP, dibutyryl cAMP]: the “effect on neurosphere differentiation” value in assay [1] is given as “moderate effect”.

As to `CCN1C[C@]2(COC(=O)c3ccccc3N3C(=O)C[C@H](C)C3=O)CC[C@H](OC)[C@@]34[C@@H]5C[C@H]6[C@H](OC)[C@@H]5[C@](O)(C[C@@H]6OC)[C@@](O)([C@@H](OC)[C@H]23)[C@@H]14` [MLA, Methyllycaconitine], in the assay with MADB106 cells, the “PBMC NK cell activity” value is given as “reversed the effect of β-EP; also recorded: moderate or strong inhibitory effect”; the macrophage migration activity result is reported as “reversed the effect of β-EP; also recorded: moderate or strong inhibitory effect”; the “effect on β-EP elimination of tumor cell lung retention” value (“effect on β-EP elimination” below) was “stopped the effect of β-EP; also recorded: prevented, at various degrees”.

On to `CC(C)NCC(O)c1cc(O)cc(O)c1` (stereo not drawn) [MP, Metaproterenol], for which, in the assay with MADB106 cells, the “PBMC NK cell activity” value is on record as “reversed the effect of β-EP”, the macrophage migration activity result was “reversed the effect of β-EP” and the “effect on β-EP elimination” value is “stopped the effect of β-EP”. In the assay with MADB106 cells (listed as MET), the “PBMC NK cell activity” value is on record as “moderate or strong inhibitory effect”; the macrophage migration activity result is given as “moderate or strong inhibitory effect”; the “effect on β-EP elimination” value is listed as “prevented, at various degrees”.

Regarding `CCCCC[C@H](O)/C=C/[C@H]1[C@H](O)CC(=O)[C@@H]1CCCCCCC(=O)O` [PGE1, prostaglandin E1], in assay [2] (cells at 1 week), the BEP release result was “only moderately enhanced” and the POMC expression result was “no effect”. For the same molecule, in assay [2] (cells at 2 weeks), the BEP-release response entry was “significantly increased” and the POMC-expression response result is “significantly increased”.
